One data set is described as follows: Acute Toxicity. The note with it: mouse, in vivo; male mice, oral single dose, observed nine days. The protocol: Food and water were delivered ad lib. The drug to be tested was prepared as a water suspension using one drop of "Tween 80" per 10 ml. and administered orally as a single dose (10 ml./kg.). The control group received the vehicle only (10 ml./kg.). The lethal dose (LD50) which is the dose of drug required to kill 50 percent of the animals tested, was determined by the Litchfield and Wilcoxon method.

In another data set the test system is carrageenan paw edema. Kind of data set: Carrageenan Paw Edema (CPE). In kind it is in vivo, male rats. The protocol:
Of the substances used to induce local irritation, carrageenan was selected since most known nonsteroidal anti-inflammatory agents inhibit this inflammation.
Ten male rats per dose group (120-150 g.) were given one-half of the test material orally. Thirty minutes later, the remainder of the dose was given and 0.2 ml. of a 1% carrageenan solution was injected subdermally into the plantar surface of the hind paw. Each paw is marked as a consistent anatomical site, then immersed in a mercury bath to that point. The mercury bath is connected to a pressure transducer and the volume of displacement is read directly on a recorder. Three hours after drug administration, the hind paw volume is measured again. The increased volume is an index of edema. Treated groups are compared to a placebo-treated group to calculate the percent inhibition of edema.
(§1) The test results are given in the following Table wherein the following legends were employed: PQW phenylquinone writhing RSA Randall-Selitto Analgesia CPE Carrageenan Paw Edema UVS Ultra-Violet Erythema FPG Filter Paper Granuloma AP Anti-Pyresis P.T. Pain Threshold No. P/T Number Positive/Total % ↑ Percentage Increase % ↓ Percentage Inhibition

For data set [1], the system named is yeast-inflamed hind paw (pain threshold). Description: Randall-Selitto Analgesia Test (RSA). In kind it is in vivo, rat. The method, then:
In accordance with the Randall-Selitto test for measuring the pain threshold, the pressure needed on a metal plunger to give a "pain reponse" in a rat when the plunger is placed in the yeast-inflamed hind paw of a rat is measured. Following measurement of control pain threshold, yeast was injected into the paw and the test compound was given orally. The pain threshold was measured at hourly intervals and compared to a placebo-treated control group.
as §1

In another data set the test system is polyarthritis (adjuvant). Kind of data set: Polyarthritis in rats (adjuvant). The data set is classed as in vivo. The protocol: Twelve rats per dose group were treated (b.i.d.) starting the day before injection of adjuvant. Paw volumes were measured for both hind paws on several days during and following drug treatment. Drug was given for a period of 15 days. The paw volume was compared to an untreated control group to determine volume increase. Drug action was calculated as the percent decrease in paw volume (inflammation) as compared to an adjuvant-treated control. Gross signs of inflammation were scored on a weekly basis and drug action calculated as a decrese in total score. Body weights were recorded at intervals.

A further data set concerns Brewer's yeast fever. Description: Anti-Pyretic Assay (AP). The data set is classed as in vivo, rats. The note with it: positive = rectal temperature decreases by 1° C. or more. The method, then:
Brewer's yeast was injected subcutaneously in rats and rectal temperatures were obtained at the end of five hours. Those rats (10 per group) having a significant fever were given test compounds and rectal temperatures were measured at hourly intervals for 2 to 3 hours. (A positive response occurs when rectal temperature decreases by 1° C. or more).
as §1

Another data set relates to gastrointestinal tract. Description: Gastrointestinal tolerance. The data set is classed as in vivo. The following applies: compared with the free acids.
Another data set concerns phenylquinone writhing. Description: Phenylquinone analgesia (phenylquinone writhing, PQW). In kind it is in vivo, mice. The method, then:
Mice were pre-treated orally with test compound and then given 1.25 mg./kg. of phenylquinone i.p to produce a series of "writhes" (severe intestinal contractions). The number of writhes was recorded. The percent decrease was calculated from the incidence of writhes in a placebo-treated control group.
as §1

The test system of a further data set is filter paper granuloma. Description: Filter Paper Granuloma (FPG). The data set is classed as in vivo, rat. The method, then: This assay was used to evaluate anti-inflammatory agents and to determine the lowest dose which produces significant inhibition of granuloma growth. This assay has the advantage of being semi-acute (4 to 7 days). The usual end point involves obtaining the wet weight as well as the dry weight of the granuloma.
Small discs of filter paper saturated with carrageenan were placed subcutaneously in each rat on the first day of the study. Test compound was administered orally on a b.i.d. basis on Day 1 to Day 4. On Day 5, a single dose was given in the morning and the animals were sacrificed in the afternoon. Both filter paper discs were removed and trimmed of extraneous tissue and then weighed. After drying in an oven over the weekend, the dry weight was obtained. Activity was determined by the difference in granuloma weight between a placebo-treated control group and the drug-treated groups.
as §1

The next data set concerns ultra-violet erythema. Description: Ultra-violet Erythema in Guinea Pigs (UVE). In kind it is in vivo, guinea pig.
Source text: Erythema associated with inflammation was used in the assay. Restricted areas of a guinea pig were exposed to a controlled ultra-violet light and after two hours the exposed areas were graded for the extent of erythema.
as §1

Where a name gives a salt, the structure may show the parent alone. Bounds are passed on as bounds.

The source of these data is patent US3969401A, “D-aminophenylacetic acid compounds and derivatives” (William H. Rorer, Inc., priority 1973, dated 1976).

`O=C(O)C(SSC(C(=O)O)c1ccc(C2CCCCC2)c(Cl)c1)c1ccc(C2CCCCC2)c(Cl)c1` (stereo not drawn) [Compound 531A, Diethylammonium salt of α,α'-di-(m-chloro-p-cyclohexylphenyl)-α',α'-dithiodiacetic acid] had an LD50 at 216 h in the data set “Acute Toxicity” of more than 2000 mg/kg. Moreover, the “CPE % inhibition of edema” value in the data set on carrageenan paw edema (100 mg/kg P.O) came to 19.9%. The “RSA % increase of pain threshold (PT)” value is 32% in data set [1] (50 mg/kg P.O), 28% in [1] (100 mg/kg P.O) and 51% in data set [1] (200 mg/kg P.O). Further, the “Polyarthritis % av. inhibition, injected hind-paw” value is recorded as 34.0% in the data set on polyarthritis (adjuvant) (100 mg./kg./day P.O) and 35.6% with polyarthritis (adjuvant) (200 mg./kg./day P.O). Also, the results for the “Polyarthritis % av. inhibition, noninjected hind-paw” value with polyarthritis (adjuvant) (100 mg./kg./day P.O) and in the data set with polyarthritis (adjuvant) (200 mg./kg./day P.O) were 44.7% and 43.8%, respectively. In addition, the figures for the “Polyarthritis % av. inhibition, secondary lesions” value in the data set on polyarthritis (adjuvant) (100 mg./kg./day P.O) and in the data set with polyarthritis (adjuvant) (200 mg./kg./day P.O) were 30.3% and 43.6%, respectively. Besides, the “AP No. P/T (Number Positive/Total)” value in the data set with Brewer's yeast fever (50 mg/kg P.O) was 1/8; in the data set on Brewer's yeast fever (100 mg/kg P.O), 1/8; in the data set on Brewer's yeast fever (200 mg/kg P.O) it was 6/8.
For the molecule `CCOC(=O)C(Cl)c1ccc(C2CCCCC2)c(Cl)c1` (stereo not drawn) [Compound 541, α,m-Dichloro-p-cyclohexylphenylacetic acid ethyl ester], the “CPE % inhibition of edema” value in the data set on carrageenan paw edema (6.25 mg/kg P.O) turned out to be 51.3%; in the data set on carrageenan paw edema (12.5 mg/kg P.O) it was 38.8%; with carrageenan paw edema (25 mg/kg P.O), 49.8%; with carrageenan paw edema (50 mg/kg P.O) it was 52.2%. The gastrointestinal tolerability entry with gastrointestinal tract is “better tolerated and not as irritating on the gastrointestinal tract as the free acids”.
Take `O=C(O)C(Cl)c1ccc(C2CCCCC2)c(Cl)c1` (stereo not drawn) [Compound 539A, Sodium salt of α,m-dichloro-p-cyclohexylphenylacetic acid]: the “PQW % inhibition (decrease in writhes)” value in the data set on phenylquinone writhing (2 mg/kg P.O) was 13.1%; with phenylquinone writhing (5 mg/kg P.O), 13.1%; in the data set on phenylquinone writhing (10 mg/kg P.O) it was 54.6%; in the data set with phenylquinone writhing (20 mg/kg P.O), 84.5%; with phenylquinone writhing (30 mg/kg P.O), 96.6%. The ED50 in the data set on phenylquinone writhing (Mus musculus, po, P.O) came out at 9.6 mg/kg. In “Acute Toxicity”, this molecule came in with an LD50 at 216 h of 430 mg/kg. Further, the “CPE % inhibition of edema” value in the data set with carrageenan paw edema (1 mg/kg P.O) is 10%; in the data set with carrageenan paw edema (2 mg/kg P.O), 30.3%; in the data set with carrageenan paw edema (3.125 mg/kg P.O), 34.6%; with carrageenan paw edema (5 mg/kg P.O) it was 29.5%; in the data set with carrageenan paw edema (6.25 mg/kg P.O), 42.0%; with carrageenan paw edema (12.5 mg/kg P.O), 47.2%. Moreover, the results for the “CPE % inhibition of edema” value in the data set on carrageenan paw edema (25 mg/kg P.O), in the data set with carrageenan paw edema (50 mg/kg P.O) and with carrageenan paw edema (100 mg/kg P.O) were 43.0%, 52.0% and 64.0%, respectively. In addition, the figures for the “RSA % increase of pain threshold (PT)” value in data set [1] (25 mg/kg P.O), in data set [1] (50 mg/kg P.O) and in data set [1] (100 mg/kg P.O) were 41.8%, 49.3% and 77.6%, respectively. The “Polyarthritis % av. inhibition, injected hind-paw” value came out at 41.8% with polyarthritis (adjuvant) (10 mg./kg./day P.O), 50.2% in the data set on polyarthritis (adjuvant) (25 mg./kg./day P.O), 45% with polyarthritis (adjuvant) (50 mg./kg./day P.O) and 59.1% in the data set with polyarthritis (adjuvant) (100 mg./kg./day P.O). The “Polyarthritis % av. inhibition, noninjected hind-paw” value is 14.1% with polyarthritis (adjuvant) (10 mg./kg./day P.O), 12.1% with polyarthritis (adjuvant) (25 mg./kg./day P.O), 59.6% with polyarthritis (adjuvant) (50 mg./kg./day P.O) and 51.2% in the data set on polyarthritis (adjuvant) (100 mg./kg./day P.O). Moreover, the “Polyarthritis % av. inhibition, secondary lesions” value worked out at 28.2% in the data set on polyarthritis (adjuvant) (10 mg./kg./day P.O), 44.0% in the data set on polyarthritis (adjuvant) (25 mg./kg./day P.O), 39.3% in the data set with polyarthritis (adjuvant) (50 mg./kg./day P.O) and 30.1% in the data set on polyarthritis (adjuvant) (100 mg./kg./day P.O). The “EPG (Filter Paper Granuloma) % inhibition, dry weight” value in the data set with filter paper granuloma (25 mg./kg./day P.O) was found to be 41.1%; in the data set with filter paper granuloma (50 mg./kg./day P.O) it was 38.8%. Moreover, the “EPG (Filter Paper Granuloma) % inhibition, wet weight” value with filter paper granuloma (25 mg./kg./day P.O) turned out to be 31.7%; in the data set on filter paper granuloma (50 mg./kg./day P.O), 43.9%. Besides, the “AP No. P/T (Number Positive/Total)” value is reported as 0/8 in the data set on Brewer's yeast fever (6.25 mg/kg P.O); 3/8 with Brewer's yeast fever (12.5 mg/kg P.O); 2/8 with Brewer's yeast fever (25 mg/kg P.O); 6/8 with Brewer's yeast fever (50 mg/kg P.O); 8/8 in the data set on Brewer's yeast fever (100 mg/kg P.O).
As to `O=C1NC(=O)C(c2ccc(C3CCCCC3)c(Cl)c2)S1` (centres unmarked) [Compound 529, 5-(m-Chloro-p-cyclohexylphenyl)-2,4-dioxothiazolidine], in the data set on carrageenan paw edema (50 mg/kg P.O), the “CPE % inhibition of edema” value was determined as 17.4%. Further, the “CPE % inhibition of edema” value with carrageenan paw edema (100 mg/kg P.O) is 30%. In the data set with polyarthritis (adjuvant) (100 mg./kg./day P.O), the “Polyarthritis % av. inhibition, injected hind-paw” value is reported as 42.0%; the “Polyarthritis % av. inhibition, noninjected hind-paw” value was 17.3%; the “Polyarthritis % av. inhibition, secondary lesions” value is reported as 21.0%. Besides, the “AP No. P/T (Number Positive/Total)” value in the data set with Brewer's yeast fever (100 mg/kg P.O) is on record as 1/8.
With `O=C(O)C(S)c1ccc(C2CCCCC2)c(Cl)c1` (stereo not drawn) [Compound 528A, Diethylammonium salt of m-chloro-p-cyclohexyl-α-mercaptophenylacetic acid], in the data set on carrageenan paw edema (100 mg/kg P.O), the “CPE % inhibition of edema” value was determined as 52.0%. The “UVE No. P/T (Number Positive/Total)” value in the data set with ultra-violet erythema (5 mg/kg P.O) was 5/8. The “UVE No. P/T (Number Positive/Total)” value in the data set with ultra-violet erythema (10 mg/kg P.O) is 5/8. Further, in the data set with ultra-violet erythema (25 mg/kg P.O), the “UVE No. P/T (Number Positive/Total)” value is given as 7/8. In the data set on ultra-violet erythema (Cavia porcellus, po, P.O), the ED50 is 10.5 mg/kg. In addition, in the data set on polyarthritis (adjuvant) (100 mg./kg./day P.O), the “Polyarthritis % av. inhibition, injected hind-paw” value is on record as 52.8%; the “Polyarthritis % av. inhibition, noninjected hind-paw” value is 35.6%; the “Polyarthritis % av. inhibition, secondary lesions” value was determined as 34.0%.
Consider `N=C1NC(=O)C(c2ccc(C3CCCCC3)c(Cl)c2)S1` (centres unmarked) [Compound 530, 5-(m-Chloro-p-cyclohexylphenyl)-2-imino-4-oxothiazolidine], for which the “RSA % increase of pain threshold (PT)” value in [1] (100 mg/kg P.O) amounted to 51.4%. In addition, in the data set with polyarthritis (adjuvant) (100 mg./kg./day P.O), the “Polyarthritis % av. inhibition, injected hind-paw” value was found to be 38.1%; the “Polyarthritis % av. inhibition, noninjected hind-paw” value is 44.7%; the “Polyarthritis % av. inhibition, secondary lesions” value was 17.3%.
